From patent US20240365783A1, “HERBICIDAL MALONAMIDES” (BASF SE, priority 2021, published 2024) come the findings set out here.

Holding throughout (assay type): in vivo
Assay [1] has as its system Abutilon theophrasti (ABUTH). As to the kind of experiment: greenhouse post-emergence herbicidal test, ABUTH. As to conditions: post-emergence method, application rate 0.250 kg/ha, scale from 0 to 100. From the text:
(§1) The culture containers used were plastic flowerpots containing loamy sand with approximately 3.0% of humus as the substrate. The seeds of the test plants were sown separately for each species.
(§2) For the post-emergence treatment, the test plants were first grown to a height of 3 to 15 cm, depending on the plant habit, and only then treated with the active ingredients which had been suspended or emulsified in water. For this purpose, the test plants were either sown directly and grown in the same containers, or they were first grown separately as seedlings and transplanted into the test containers a few days prior to treatment.
(§3) Depending on the species, the test plants were kept at 10-25° C. or 20-35° C., respectively.
(§4) The test period extended over 2 to 4 weeks. During this time, the test plants were tended, and their response to the individual treatments was evaluated.
(§5) Evaluation was carried out using a scale from 0 to 100. 100 means no emergence of the test plants, or complete destruction of at least the aerial moieties, and 0 means no damage, or normal course of growth. A good herbicidal activity is given at values of 70 to <90 and a very good herbicidal activity is given at values of 90 to 100.
(§6) The test plants used in the greenhouse experiments were of the following species: […]

Assay [2] has as its system Digitaria sanguinalis (DIGSA). As to the kind of experiment: greenhouse pre-emergence herbicidal test, DIGSA. As to conditions: pre-emergence method, application rate 0.250 kg/ha, scale from 0 to 100.
From the text: as §1
(§7) For the pre-emergence treatment, the active ingredients, which had been suspended or emulsified in water, were applied directly after sowing by means of finely distributing nozzles. The containers were irrigated gently to promote germination and growth and subsequently covered with transparent plastic hoods until the test plants had rooted. This cover caused uniform germination of the test plants, unless this had been impaired by the active ingredients.
as §3, §4, §5, §6

Assay [3] deals with Apera spica-venti (APESV). As to the kind of experiment: greenhouse pre-emergence herbicidal test, APESV. The conditions noted are these: pre-emergence method, application rate 0.500 kg/ha, scale from 0 to 100.
From the text: as §1, §7, §3, §4, §5, §6

In assay [4] the test system is Setaria viridis (SETVI). As to the kind of experiment: greenhouse post-emergence herbicidal test, SETVI. The conditions noted are these: post-emergence method, application rate 0.500 kg/ha, scale from 0 to 100.
From the text: as §1, §2, §3, §4, §5, §6

In assay [5] the test system is Alopercurus myosuroides (ALOMY). As to the kind of experiment: greenhouse post-emergence herbicidal test, ALOMY. The conditions noted are these: post-emergence method, application rate 0.500 kg/ha, scale from 0 to 100.
From the text: as §1, §2, §3, §4, §5, §6

In assay [6] the test system is Abutilon theophrasti (ABUTH). As to the kind of experiment: greenhouse pre-emergence herbicidal test, ABUTH. As to conditions: pre-emergence method, scale from 0 to 100.
From the text: as §1, §7, §3, §4, §5, §6

In assay [7] the test system is Avena fatua (AVEFA). As to the kind of experiment: greenhouse post-emergence herbicidal test, AVEFA. As to conditions: post-emergence method, application rate 0.500 kg/ha, scale from 0 to 100.
From the text: as §1, §2, §3, §4, §5, §6

The subject of assay [8] is Lolium multiflorum (LOLMU). As to the kind of experiment: greenhouse pre-emergence herbicidal test, LOLMU. The conditions noted are these: pre-emergence method, application rate 0.250 kg/ha, scale from 0 to 100.
From the text: as §1, §7, §3, §4, §5, §6

With `COC(=O)C1C=CC(NC(=O)C(C)(C)C(=O)Nc2cccc(I)c2)C1` (stereo not drawn) [Compound 1.4], the “herbicidal activity against ABUTH” value in assay [1] is given as “good (A good herbicidal activity is given at values of 70 to <90)”. Turning to `CC(C)(C(=O)Nc1cccc(OC(F)(F)F)c1)C(=O)N[C@H]1C=C[C@@H](C(=O)O)C1` (relative stereo) [Compound 1.79], the “herbicidal activity against DIGSA” value in assay [2] is “good (A good herbicidal activity is given at values of 70 to <90)”. For `COC(=O)CC(C)NC(=O)C(C)(C)C(=O)Nc1cc(Cl)cc(Cl)c1` (stereo not drawn) [Compound 1.1], in assay [3], the “herbicidal activity against APESV” value was “very good (a very good herbicidal activity is given at values of 90 to 100)”. Also, in assay [4], the “herbicidal activity against SETVI” value is reported as “very good (a very good herbicidal activity is given at values of 90 to 100)”. In assay [5], the “herbicidal activity against ALOMY” value is “very good (a very good herbicidal activity is given at values of 90 to 100)”. Moreover, the “herbicidal activity against ABUTH” value in assay [6] (application rate 0.500 kg/ha) is given as “good (A good herbicidal activity is given at values of 70 to <90)”. Further, in assay [7], the “herbicidal activity against AVEFA” value was “very good (a very good herbicidal activity is given at values of 90 to 100)”. With `CCc1cccc(NC(=O)C(C)(C)C(=O)NC(C)CCC(=O)OC)c1` (stereo not drawn) [Compound 1.19], in assay [6] (application rate 0.250 kg/ha), the “herbicidal activity against ABUTH” value was “good (A good herbicidal activity is given at values of 70 to <90)”.

As for `CC(C)(C(=O)Nc1cc(Cl)cc(Cl)c1)C(=O)N[C@H]1C=C[C@@H](C(=O)O)C1` (relative stereo) [Compound 1.80], in assay [8], the “herbicidal activity against LOLMU” value is listed as “good (A good herbicidal activity is given at values of 70 to <90)”.
